Data reported in patent US20200360260A1, “TOPICAL COMPOSITION COMPRISING ANTIMICROBIAL LIPID” (Conopco, Inc., d/b/a UNILEVER, priority 2017, published 2020).

Key:
Type in all cases: cell-based
Conditions in all cases: for combined effect with AMLs: in combination with AMLs
[1] = test system: Propionibacterium acnes (ATCC 6919); test: ΣFIC assay against P. acnes
Protocol: (§1) Method: ΣFIC Assay Against M. Furfur, S. Aureus and P Acnes
Propionibacterium acnes (ATCC 6919) was inoculated from freezer into liquid Reinforced Clostridial Medium (RCM, HepoBio: HB0316) for 3 days (anaerobic conditions) growth at 37° C. The suspension containing the microbe was then diluted 10-times with RCM and incubated again under 37° C. for another 3 days. The inoculum was further diluted by RCM to get around 10^4 cells/ml.
(§2) Honokiol (Ex. Sigma) 50 mg/ml in DMSO (50,000 ppm); Magnolol (Ex. Sigma) 50 mg/ml in DMSO (50,000 ppm); Sapienic acid (Ex. Parchem, CAS# 17004-51-2) 100 mg/ml in 100% ethanol (100,000 ppm); D-Sphingosine (Ex. Sigma S7049) 5 mg/ml in 50% ethanol (5,000 ppm); D-erythro-Dihydrosphingosine (Ex. Sigma D3314) 5 mg/ml in 50% ethanol (5,000 ppm); Phytosphingosine (Ex. Evonik) 5 mg/m stock in 50% ethanol (5,000 ppm); Palmitoleic acid (Ex. Sigma 76169) 100 mg/ml in 100% ethanol (100,000 ppm).
(§3) The ΣFIC test was conducted based on the principle previously described in Hall M J, Middleton R F, & Westmacott D (1983), The fractional inhibitory concentration (FIC) index as a measure of synergy. Journal of Antimicrobial Chemotherapy 11(5):427-433. The procedure is as follows:
(§4) Twenty (20) μl of compound A (honokiol or magnolol as applicable to the test) and 20 μl of compound B (a selection of different AMLs as applicable to the test) were mixed in corresponding wells of a 96-well plate. An amount of 160 μl of microbial suspension was dispensed in each well and the broth medium as taken as a blank control for comparison of results. The total reaction volume in each well was 200 μl.
(§5) Thereafter the 96-well plates were incubated in an incubator. In accordance with the test protocols that were followed, M. furfur was incubated aerobically at 32° C. for 1 day, S. aureus was incubated aerobically at 37° C. for 1 day and P. acnes was incubated anaerobically at 37° C. for 4 days. Thereafter 20 μl alamar blue (0.1%) was dispensed in each well and the procedure of incubation (as abovementioned) was repeated. Finally, the change in colour of the indicator was monitored to check for visible signs of microbial growth or inhibition of the growth. If the colour changed to red it indicated growth (of microbes) and blue indicated no growth or inhibition of growth.
(§6) After all the observations were recorded and tabulated, the Fractional Inhibition Concentration (FIC) was calculated. The combination effect of inhibitory antimicrobials is widely explored using the concept of the Fractional Concentration (FC) and Fractional Inhibitory Concentration (FIC). This parameter is defined as follows:
(§7) ΣFIC=FIC (component 1)+FIC (component 2)
(§8) The final concentration of each ingredient in ppm (parts per million) after (10-fold dilution) was as follows. Each of these concentrations was tried out to determine the FIC value for (either of) honokiol or magnolol in combination with one of the AMLs.

S. aureus (ATCC 12600) = test: ΣFIC assay against S. aureus
Protocol: as §1
(§9) M. furfur (CBS1878) was inoculated into Pityrosporum Broth (PB, solution A) and incubated in a shaking incubator at 32° C. for 2 days. The suspension containing the microbe was then diluted 10-times by PB and incubated again at 32° C. for another 2 days. The inoculum was further diluted by PB to get around 10^4 cells /ml. S. aureus (ATCC 12600) was inoculated into Tryptone Soya Broth (TSB, Oxoid: CM0129) and incubated in a shaking incubator at 37° C. for 1 day. The suspension containing the microbe was then diluted 10-times with TSB and incubated again at 37° C. for another 1 day. The inoculum was further diluted by TSB to get around 10^5 cells/ml.
as §2, §3, §4, §5, §6, §7, §8

M. furfur (CBS1878) = test: ΣFIC assay against M. furfur
Protocol: as §1, §9, §2, §3, §4, §5, §6, §7, §8

SMILES	The range of concentration of the ingredient (ppm) where the ΣFIC was less than 0.9: AML ([1]; in combination with honokiol) [ppm]	The range of concentration of the ingredient (ppm) where the ΣFIC was less than 0.9: AML ([1]; in combination with magnolol) [ppm]	The range of ratio of honokiol/AML (w/w) where ΣFIC was less than 0.9 [1] [w/w]	The range of ratio of magnolol/AML (w/w) where ΣFIC was less than 0.9 [1] [w/w]	The range of concentration of the ingredient (ppm) where the ΣFIC was less than 0.9: AML (S. aureus (ATCC 12600); in combination with honokiol) [ppm]	The range of concentration of the ingredient (ppm) where the ΣFIC was less than 0.9: AML (S. aureus (ATCC 12600); in combination with magnolol) [ppm]	The range of ratio of honokiol/AML (w/w) where ΣFIC was less than 0.9 (S. aureus (ATCC 12600)) [w/w]	The range of ratio of magnolol/AML (w/w) where ΣFIC was less than 0.9 (S. aureus (ATCC 12600)) [w/w]	The range of concentration of the ingredient (ppm) where the ΣFIC was less than 0.9: AML (M. furfur (CBS1878); in combination with honokiol) [ppm]	The range of concentration of the ingredient (ppm) where the ΣFIC was less than 0.9: AML (M. furfur (CBS1878); in combination with magnolol) [ppm]	The range of ratio of honokiol/AML (w/w) where ΣFIC was less than 0.9 (M. furfur (CBS1878)) [w/w]	The range of ratio of magnolol/AML (w/w) where ΣFIC was less than 0.9 (M. furfur (CBS1878)) [w/w]	combined effect with AMLs [1]	combined effect with AMLs (S. aureus (ATCC 12600))	combined effect with AMLs (M. furfur (CBS1878))
CCCCCCCCCCCCCCC[C@@H](O)[C@@H](N)CO [dihydrosphingosine, D-erythro-Dihydrosphingosine]	0.63 to 2.50	0.63 to 2.50	0.2 to 6.5	0.7 to 6.5	0.63 to 2.50	0.63 to 1.25	0.8 to 12.5	0.4 to 12.5	31.25 to 125	15.63 to 125	5 to 40	5 to 80			
C=CCc1ccc(O)c(-c2ccc(O)c(CC=C)c2)c1 [honokiol, Honokiol]													synergistic effect	synergistic effect	synergistic effect
C=CCc1ccc(O)c(-c2cc(CC=C)ccc2O)c1 [magnolol, Magnolol]													synergistic effect	synergistic effect	synergistic effect
CCCCCC/C=C\CCCCCCCC(=O)O [palmitoleic acid, Palmitoleic acid]	1.95 to 7.81	1.95 to 7.81	0.06 to 1	0.1 to 4	3.91 to 62.5	3.91 to 52.5	0.008 to 2	0.008 to 2	625 to 5000	625 to 5000	0.06 to 2	0.03 to 2			
CCCCCCCCCCCCCC[C@@H](O)[C@@H](O)[C@@H](N)CO [phytosphingosine, Phytosphingosine]	1.25 to 5.00	0.63 to 5.00	0.2 to 3.2	0.4 to 12.5	0.63 to 5.00	0.63 to 2.50	0.4 to 12.5	0.2 to 12.5	15.63 to 62.5	3.91 to 62.5	10 to 80	10 to 320			
CCCCCCCCC/C=C\CCCCC(=O)O [sapienic acid, Sapienic acid]	1.95 to 3.91	1.95 to 3.91	0.25 to 1	0.25 to 1	3.91 to 62.5	1.95 to 31.25	0.008 to 2	0.01 to 4	625 to 2500	625 to 5000	0.25 to 1	0.06 to 2			
CCCCCCCCCCCCC/C=C/[C@@H](O)[C@@H](N)CO [sphingosine, D-Sphingosine]	0.31 to 1.25	0.31 to 1.25	0.7 to 13	1.5 to 13	0.31 to 1.25	0.31 to 0.63	0.8 to 25	1.5 to 25	31.25 to 250	31.25 to 125	1.25 to 40	5 to 40			
